# Earlier results in PMC2363746, “Phase I dose-escalation and pharmacokinetic study of a novel folate analogue AG2034” (British Journal of Cancer, 2001).
smiles,measurement,setting,value
"Nc1nc2c(c(=O)[nH]1)C[C@@H](CCc1ccc(C(=O)N[C@@H](CCC(=O)O)C(=O)O)cc1)CN2 [lometrexol, (6R)-5,10-dideazatetrahydrofolate]",Unexpected toxicity in phase I studies,in vivo,myelosuppression and mucositis
same,Antitumour activity in phase I studies,"ref Ray et al, 1993",objective antitumour activity
